Results published in PubChem BioAssay (NCI).
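Cultured in 96-well plates, cells were exposed to test compound for 48 hours across five concentrations. GI50 = concentration required for 50% inhibition of growth. TGI: total growth inhibition.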

Tests used:
Experiment in all cases: NCI tumour cell line growth inhibition, 48 h
[1] = test system: MDA-N
[2] = test system: DU-145 prostate
[3] = test system: CAKI-1 renal
[4] = test system: MOLT-4 leukemia
[5] = test system: OVCAR-4 ovarian
[6] = test system: OVCAR-8 ovarian
[7] = test system: CCRF-CEM leukemia
[8] = test system: OVCAR-5 ovarian
[9] = test system: NCI/ADR-RES ovarian
[10] = test system: MALME-3M melanoma
[11] = test system: PC-3 prostate
[12] = test system: SNB-19 CNS
[13] = test system: SK-OV-3 ovarian
[14] = test system: RPMI-8226 leukemia
[15] = test system: SK-MEL-28 melanoma
[16] = test system: EKVX NSCLC
[17] = test system: SF-295 CNS
[18] = test system: SF-268 CNS
[19] = test system: A498 renal
[20] = test system: COLO 205 colon
[21] = test system: HOP-62 NSCLC
[22] = test system: MCF7 breast
[23] = test system: BT-549 breast
[24] = test system: UO-31 renal
[25] = test system: SR leukemia
[26] = test system: NCI-H460 lung
[27] = test system: RXF 393 renal
[28] = test system: SNB-75 CNS
[29] = test system: HCT-116 colon
[30] = test system: MDA-MB-435
[31] = test system: TK-10 renal
[32] = test system: T-47D breast
[33] = test system: 786-0 renal
[34] = test system: OVCAR-3 ovarian
[35] = test system: MDA-MB-231 breast
[36] = test system: HT29 colon
[37] = test system: HCT-15 colon
[38] = test system: UACC-62 melanoma
[39] = test system: NCI-H226 lung
[40] = test system: M14 melanoma
[41] = test system: HOP-92 NSCLC
[42] = test system: SN12C renal
[43] = test system: UACC-257 melanoma
[44] = test system: NCI-H522 lung
[45] = test system: IGROV1 ovarian
[46] = test system: SW-620 colon
[47] = test system: ACHN renal
[48] = test system: KM12 colon
[49] = test system: LOX IMVI melanoma
[50] = test system: NCI-H23 lung
[51] = test system: HL-60(TB) leukemia
[52] = test system: SK-MEL-5 melanoma
[53] = test system: SF-539 CNS
[54] = test system: K-562 leukemia
[55] = test system: A549 NSCLC
[56] = test system: SK-MEL-2 melanoma
[57] = test system: U251 CNS
[58] = test system: HCC-2998 colon
[59] = test system: HS 578T breast
[60] = test system: LXFL 529 NSCLC
[61] = test system: DMS 273 small cell lung
[62] = test system: XF 498 CNS
[63] = test system: KM20L2 colon
[64] = test system: M19-MEL melanoma
[65] = test system: SNB-78 CNS
[66] = test system: DLD-1 colon

SMILES: [Cl][Hg][c]1ccc2ccccc2c1
- GI50 [1]: 1.5 µM
- TGI [1]: 2.88 µM
- GI50 [2]: 4.97 µM
- TGI [2]: 15.3 µM
- GI50 [3]: 3.64 µM
- TGI [3]: 6.97 µM
- GI50 [4]: 2.01 µM
- TGI [4]: 15.2 µM
- GI50 [5]: 2.69 µM
- TGI [5]: 6.71 µM
- GI50 [6]: 2.32 µM
- TGI [6]: 6.17 µM
- GI50 [7]: 0.924 µM
- TGI [7]: 9.32 µM
- GI50 [8]: 7.55 µM
- TGI [8]: 16.5 µM
- GI50 [9]: 2.41 µM
- TGI [9]: 8.84 µM
- GI50 [10]: 1.78 µM
- TGI [10]: 3.4 µM
- GI50 [11]: 3.92 µM
- TGI [11]: 11.8 µM
- GI50 [12]: 2.22 µM
- TGI [12]: 5.21 µM
- GI50 [13]: 3.87 µM
- TGI [13]: 9.44 µM
- GI50 [14]: 2.5 µM
- TGI [14]: 10.1 µM
- GI50 [15]: 1.6 µM
- TGI [15]: 3.03 µM
- GI50 [16]: 3.07 µM
- TGI [16]: 7.96 µM
- GI50 [17]: 7.01 µM
- TGI [17]: 18.9 µM
- GI50 [18]: 2.22 µM
- TGI [18]: 5.91 µM
- GI50 [19]: 3.96 µM
- TGI [19]: 12.4 µM
- GI50 [20]: 2.3 µM
- TGI [20]: 5.18 µM
- GI50 [21]: 3.93 µM
- TGI [21]: 11.8 µM
- GI50 [22]: 2.07 µM
- TGI [22]: 5.61 µM
- GI50 [23]: 1.46 µM
- TGI [23]: 2.82 µM
- GI50 [24]: 4.44 µM
- TGI [24]: 8.23 µM
- GI50 [25]: 0.257 µM
- TGI [25]: 5.86 µM
- GI50 [26]: 4.18 µM
- TGI [26]: 23.8 µM
- GI50 [27]: 1.62 µM
- TGI [27]: 3.04 µM
- GI50 [28]: 2.24 µM
- TGI [28]: 5.79 µM
- GI50 [29]: 3.18 µM
- TGI [29]: 7.59 µM
- GI50 [30]: 1.68 µM
- TGI [30]: 3.44 µM
- GI50 [31]: 2.92 µM
- TGI [31]: 6.62 µM
- GI50 [32]: 2.05 µM
- TGI [32]: 4.85 µM
- GI50 [33]: 1.76 µM
- TGI [33]: 3.21 µM
- GI50 [34]: 1.79 µM
- TGI [34]: 3.63 µM
- GI50 [35]: 1.74 µM
- TGI [35]: 3.5 µM
- GI50 [36]: 2.8 µM
- TGI [36]: 9.58 µM
- GI50 [37]: 1.58 µM
- TGI [37]: 3.18 µM
- GI50 [38]: 1.81 µM
- TGI [38]: 4.45 µM
- GI50 [39]: 14.2 µM
- TGI [39]: 36.3 µM
- GI50 [40]: 1.46 µM
- TGI [40]: 2.96 µM
- GI50 [41]: 1.92 µM
- TGI [41]: 3.46 µM
- GI50 [42]: 1.76 µM
- TGI [42]: 3.57 µM
- GI50 [43]: 1.97 µM
- TGI [43]: 4.33 µM
- GI50 [44]: 0.821 µM
- TGI [44]: 2.37 µM
- GI50 [45]: 1.31 µM
- TGI [45]: 3.02 µM
- GI50 [46]: 1.77 µM
- TGI [46]: 3.62 µM
- GI50 [47]: 4.33 µM
- TGI [47]: 11.8 µM
- GI50 [48]: 7.66 µM
- TGI [48]: 22.6 µM
- GI50 [49]: 0.284 µM
- TGI [49]: 1.97 µM
- GI50 [50]: 1.51 µM
- TGI [50]: 3.95 µM
- GI50 [51]: 0.655 µM
- TGI [51]: 2.36 µM
- GI50 [52]: 1.25 µM
- TGI [52]: 3.13 µM
- GI50 [53]: 2.02 µM
- TGI [53]: 4.73 µM
- GI50 [54]: 0.862 µM
- TGI [54]: 9.77 µM
- GI50 [55]: 12.1 µM
- TGI [55]: 27.1 µM
- GI50 [56]: 1.6 µM
- TGI [56]: 3.92 µM
- GI50 [57]: 1.31 µM
- TGI [57]: 2.68 µM
- GI50 [58]: 2.57 µM
- TGI [58]: 7.21 µM
- GI50 [59]: 1.77 µM
- TGI [59]: 13.1 µM

SMILES: O=NN1CCN=C1c1ccc([N+](=O)[O-])cc1
- TGI [3]: > 100 µM
- TGI [60]: > 100 µM
- TGI [4]: > 100 µM
- TGI [5]: > 100 µM
- TGI [6]: > 100 µM
- TGI [8]: > 100 µM
- TGI [61]: > 100 µM
- TGI [10]: > 100 µM
- TGI [12]: > 100 µM
- TGI [62]: > 100 µM
- TGI [13]: > 100 µM
- TGI [14]: > 100 µM
- TGI [15]: > 100 µM
- TGI [17]: > 100 µM
- TGI [18]: > 100 µM
- TGI [63]: > 100 µM
- TGI [20]: > 100 µM
- TGI [21]: > 100 µM
- TGI [24]: > 100 µM
- TGI [25]: > 100 µM
- TGI [26]: > 100 µM
- TGI [64]: > 100 µM
- TGI [27]: > 100 µM
- TGI [28]: > 100 µM
- TGI [29]: > 100 µM
- TGI [31]: > 100 µM
- TGI [33]: > 100 µM
- TGI [34]: > 100 µM
- TGI [36]: > 100 µM
- TGI [37]: > 100 µM
- TGI [38]: > 100 µM
- TGI [65]: > 100 µM
- TGI [39]: > 100 µM
- TGI [40]: > 100 µM
- TGI [41]: > 100 µM
- TGI [42]: > 100 µM
- TGI [43]: > 100 µM
- TGI [44]: > 100 µM
- TGI [45]: > 100 µM
- TGI [66]: > 100 µM
- TGI [46]: > 100 µM
- TGI [47]: > 100 µM
- TGI [48]: > 100 µM
- TGI [49]: > 100 µM
- TGI [50]: > 100 µM
- TGI [51]: > 100 µM
- TGI [52]: > 100 µM
- TGI [53]: > 100 µM
- TGI [54]: > 100 µM
- TGI [55]: > 100 µM
- TGI [57]: > 100 µM
- TGI [58]: > 100 µM

SMILES: CCN(CC)/[N+]([O-])=N/OCOC
- TGI [1]: > 100 µM
- TGI [2]: > 100 µM
- TGI [3]: > 100 µM
- TGI [4]: > 100 µM
- TGI [5]: > 100 µM
- TGI [6]: > 100 µM
- TGI [7]: > 100 µM
- TGI [8]: > 100 µM
- TGI [9]: > 100 µM
- TGI [10]: > 100 µM
- TGI [11]: > 100 µM
- TGI [12]: > 100 µM
- TGI [13]: > 100 µM
- TGI [14]: > 100 µM
- TGI [15]: > 100 µM
- TGI [16]: > 100 µM
- TGI [17]: > 100 µM
- TGI [18]: > 100 µM
- TGI [19]: > 100 µM
- TGI [20]: > 100 µM
- TGI [21]: > 100 µM
- TGI [22]: > 100 µM
- TGI [23]: > 100 µM
- TGI [24]: > 100 µM
- TGI [25]: > 100 µM
- TGI [26]: > 100 µM
- TGI [27]: > 100 µM
- TGI [28]: > 100 µM
- TGI [29]: > 100 µM
- TGI [30]: > 100 µM
- TGI [31]: > 100 µM
- TGI [32]: > 100 µM
- TGI [33]: > 100 µM
- TGI [34]: > 100 µM
- TGI [35]: > 100 µM
- TGI [36]: > 100 µM
- TGI [37]: > 100 µM
- TGI [38]: > 100 µM
- TGI [39]: > 100 µM
- TGI [40]: > 100 µM
- TGI [41]: > 100 µM
- TGI [42]: > 100 µM
- TGI [43]: > 100 µM
- TGI [44]: > 100 µM
- TGI [45]: > 100 µM
- TGI [46]: > 100 µM
- TGI [47]: > 100 µM
- TGI [48]: > 100 µM
- TGI [49]: > 100 µM
- TGI [50]: > 100 µM
- TGI [51]: > 100 µM
- TGI [52]: > 100 µM
- TGI [53]: > 100 µM
- TGI [54]: > 100 µM
- TGI [55]: > 100 µM
- TGI [56]: > 100 µM
- TGI [57]: > 100 µM
- TGI [58]: > 100 µM
- TGI [59]: > 100 µM
